Entries after “also recorded” stand apart in the source; their conditions may differ.
Tests used:
[1] = fs-TRLS observation of DET reaction with a weakly-bound electron; conditions: pump 350 nm, probe 400 nm; for DET reaction with weakly-bound electron ewb−: identical conditions
Source text: Femtosecond (fs) time-resolved laser spectroscopy (fs-TRLS) is the most versatile and powerful technique for real-time observation of molecular reactions. It uses laser flashes of such short duration that we are down to the time scale on which the reactions actually happen—femtoseconds (fs) (1 fs=10^−15 seconds). […] For the latter, briefly our fs laser amplifier system (Spectra-Physics, Spitfire) produced laser pulses with a pulse width of 100-120 fs at a repetition rate of 500 Hz. A intense pump pulse at 350 nm was used to generate a weakly-bound electron (ewb^−) by 2-photon excitation of a H2O molecule into a higher energy state H2O* that then ionizes to produce an ewb^−; a probe pulse at 400 nm coming at certain delay was used to monitor the DET reaction with the electron by detecting transient absorbance of the reaction intermediate anion state.

[2] = tested on: human normal cells (GM05757); test: MTT cell viability, human normal cells (toxicity); conditions: for toxicity to human normal cells (cell survival rate): GM05757, 96-hr treatment, up to 200 μM
Protocol: A human skin diploid fibroblast (GM05757 cell line) was obtained from the Coriell Cell Repository directly. Fetal bovine serum (FBS) was obtained from Hyclone Laboratories (UT, USA). The GM05757 normal cells were cultivated with MEM (Hyclone) supplemented with 10% FBS, 100 units/mL penicillin G and 100 μg/mL streptomycin (Hyclone). The cells were maintained at 37° C. in a humidified atmosphere containing 5% CO2.
The toxic effects of NPBs on cell viability were determined by the 3-[4,5-dimethylthiazol-2-yl]-2,5-diphenyl tetrazoliumbromide (MTT) assay. Cells were cultured in 96-well plates (5×10^3 cells/well) for 24 h. The culture medium was replaced by fresh culture medium and incubated for 72 or 96 h with varying drug concentrations. The MTT assay of cell viability was then conducted. Briefly, 100 μl new medium without phenol red containing 1.2 mM MTT (sigma) (i.e., adding 10 μl 12 mM MTT stock solution in PBS) were added to each well and incubated for 4 h. The medium was then removed, and the formazan crystals solubilized by 100 μL/well DMSO (or alternatively by 100 μl/well SDS and incubated for another 4 h). The surviving fraction was determined by measuring the absorbance at 540 nm (570 nm for SDS solubilization) using a Multiskan Spectrum UV/Vis microplate reader (Thermo Scientific), which is directly proportional to the number of viable cells.

[3] = tested on: human cervical cancer (ME-180) cells; test: MTT cell viability, ME-180; assay type: cell-based; conditions: ME-180, 96-hr treatment
Protocol: (§1) The complete growth media for ME-180, NIH:OVCAR-3, A549 and MDA-MB-231 cells were the ATCC-formulated McCoy's 5A Medium supplemented with 10% FBS, RPMI 1640 medium with 20%, F-12K medium with 10% FBS, and L-15 Medium (Leibovitz) with 10% FBS, respectively.
(§2) The MTT assay of cell viability was then conducted.

[4] = tested on: human cervical cancer (HeLa) cells; test: MTT cell viability, HeLa; assay type: cell-based; conditions: 96-hr treatment
[5] = tested on: human lung cancer (A549) cells; test: MTT cell viability, A549; assay type: cell-based
Protocol: as §1, §2

[6] = tested on: human breast cancer (MDA-MB-231) cells; test: MTT cell viability, MDA-MB-231; assay type: cell-based; conditions: MDA-MB-231, 96-hr treatment
Protocol: as §1, §2

[7] = tested on: cisplatin-resistant human ovarian cancer (NIH:OVCAR-3, HTB-161) cells; test: MTT cell viability, HTB-161; assay type: cell-based; conditions: HTB-161, 96-hr treatment
Protocol: as §1, §2

[8] = tested on: human cervical cancer (ME-180) tumor; test: Xenograft mouse model of human cervical cancer (ME-180); assay type: in vivo, SCID mice; conditions: 7 mg/kg daily for 5 days, IP
Protocol: The two groups in the experiment were: (1) control article (5% EtOH/medium); (2) Compound B at 7 mg/kg in 5% EtOH/medium daily for 5 days, as shown in Table 1.
(§3) 6-8 week SCID mice were used in this study; Compound B as an exemplary NPB was dissolved in 5% EtOH: 95% cell culture medium (≈1:20).
ME-180 (human cervical cancer) cells were cultured in the ATCC-formulated McCoy's 5A Medium supplemented with 10% FBS. […] The cells were rinsed with PBS, trypsined for detachment from the bottom of the flask, mixed with fresh growth medium, and centrifuged to remove the supernatant. The cells were re-suspend with fresh medium to appropriate concentration for s.c. injection into the mice. Injection volume was 50 μl (1.5×10^6 cells) per animal.
ME-180 tumour cells were subcutaneously into female SCID mice (age 6-8 weeks) in a volume of 50 μL into the left flank using a 27-gauge needle. This was established as a subcutaneous (SC) xenograft mouse model of human cervical cancer.
(§4) Mice were individually weighed and injected intraperitoneally according to body weight for an injection concentration as outlined in the study group table above. The injection volume was based on 200 μL per 20 g mouse. The skin surface was wiped down with 70% isopropyl alcohol to clean the injection site.
Tumor size was measured as a function of time to assess tumor growth delay associated with treatment using slide caliper. […]

[9] = In vivo toxicity in SCID mice
Protocol: The two groups (five 6-8 week SCID mice/group) in the experiment were: (1) control article (in 5% EtOH/medium); and (2) Compound B 7 mg/kg in 5% EtOH/medium, as shown in Table 2. Compound B was injected IP every day for 5 days.
as §3
as §4, with “6-8 week SCID Mice” for “Mice”, “intraperitoneally (IP)” for “intraperitoneally”, “above. Compound B was administered by IP injection into mice at 0, and 7 mg/kg daily for 5 days.” for “above.”
The overall drug toxicity in mice was observed by a survival assay and body weight measurements, and the acute drug toxicity was measured by blood collection and histology. The hepatotoxicity (ALT, ALP, total bilirubin), nephrotoxicity (blood urea, creatinine), and electrolytes (Na, K, Cl) were analyzed by biochemical methods or HPLC-mass spectroscopy. […] Blood samples were collected from the saphenous vein at various time points after drug injection. At the end of the study, whole organs were harvested in order to assess liver, and kidney toxicity.
All animals were observed post administration, and at least once a day, more if deemed necessary, during the pre-treatment and treatment periods for mortality and morbidity. In particular, animals were monitored for signs of ill health such as body weight loss, change in appetite, behavior changes such as altered gait, lethargy and gross manifestations of stress.

[10] = tested on: human cervical cancer (ME-180) cells; test: γH2AX DNA damage assay (DNA double-strand breaks); assay type: cell-based; conditions: ME-180, 12 h treatment
Protocol: The γH2AX DNA damage assay (Invitrogen) was used to detect DSBs of genomic DNA in cancer cells. The phosphorylated H2AX foci are a biomarker of DNA DSB. DNA DSBs are measured by specific antibody-based detection of phosphorylated H2AX (γH2AX) in the nucleus. Briefly, the human cervical cancer (ME-180) cells were treated with different concentrations of compound B for 12 h under the cell culture conditions described above. Then following the detailed experimental procedures described in the Protocol provided by the manufacturer, we performed the HCS DNA Damage Assay of the treated cells. The images of cells were acquired with a Nikon Eclipse TS100 fluorescence microscope; quantitative analyses of activated γ-H2AX (DNA DBS yield) in the cells were performed using an Image J software.

[11] = tested on: human cervical cancer (ME-180) cells; test: CellEvent Caspase-3/7 apoptosis assay by fluorescence microscopy; assay type: cell-based; conditions: 48 h
Source text: Human cervical cancer (ME-180) cells were purchased from the American Type Culture Collection (ATCC).
The CellEvent™ Caspase-3/7 Green Detection Kit (Invitrogen) was used for the detection of activated caspases and apoptotic cells following the vendor's protocol. This kit provides a […] specific for caspase-3 and -7; the cells show green fluorescence for activated caspase-3 and -7. The reagent consists of a four amino acid peptide (DEVD) conjugated to a nucleic acid binding dye. This cell-permeant substrate is intrinsically non-fluorescent, because the DEVD peptide inhibits the ability of the dye to bind to DNA. After activation of caspase-3 or caspase-7 in apoptotic cells, the DEVD peptide is cleaved, enabling the dye to bind to DNA and produce green fluorescence. Briefly, to use the CellEvent™ Caspase-3/7 Green Detection Reagent, add the substrate to the cells in complete growth medium, incubate for 30 minutes, and image. […] Because the cleaved reagent labels nuclei of caspase 3/7-positive cells, this stain can also provide information on nuclear morphology, including condensed nuclei typical of late-stage apoptosis. ME-180 cells were grown to 60% confluence and then treated with 0-200 μM compound B for 48 h. The fluorescence was detected with a Nikon Eclipse TS100 microscope. Images were captured with an attached camera.

[12] = mouse, in vivo, ip, 7 mg/kg/day

Molecule | DET reaction with weakly-bound electron ewb− [1] | toxicity to human normal cells (cell survival rate) [2] | cell survival rate (killing of cancer cells) [3] | cell survival rate (killing of cancer cells) [4] | cell survival rate (killing of cancer cells) ([5]; A549, 96 hr treatment) | cell survival rate (killing of cancer cells) [6] | cell survival rate (killing of cisplatin-resistant cancer cells) [7] | further results
O=c1[nH]c(=O)n([C@H]2C[C@H](O)[C@@H](CO)O2)cc1Br [BrdU, bromodeoxyuridine] | no DET reactions detected; also recorded: negligible; also recorded: no DET reaction |  |  |  |  |  |  | 
Nc1cc(Cl)c(Cl)cc1N [Compound A, 4,5-dichloro-1,2-phenylenediamine] |  | essentially no toxicity; also recorded: little toxicity | significant killing | significant killing | significant killing | significant killing | significant killing | 
Nc1cc(Br)c(Br)cc1N [Compound B, 4,5-dibromo-1,2-phenylenediamine] | highly effective | essentially no toxicity; also recorded: little toxicity | significant killing | significant killing | significant killing | significant killing | significant killing | tumor growth vs control group [8]: significantly suppressed tumor growth; overall toxicity ([9]; 7 mg/kg daily for 5 days, IP): no overall drug toxicity; electrolytes (Na, K, Cl) [9, 12]: no changes in electrolytes; hepatotoxicity (ALT, ALP, total bilirubin) [9, 12]: no hepatotoxicity; nephrotoxicity (blood urea, creatinine) [9, 12]: no nephrotoxicity; yield of DNA double-strand breaks (γ-H2AX intensity) [10]: significant amount of DNA DSBs; dissociative lifetime of NPB*− ([1]; ethanol): ~6.0 ps; activation of caspase-3 and -7 ([11]; ME-180, 0-200 μM): significant activation; population of apoptotic cells ([11]; ME-180, 200 μM): ≥ 60%
Nc1cc(I)c(I)cc1N [Compound C, 4,5-diiodo-1,2-phenylenediamine] |  | essentially no toxicity; also recorded: little toxicity |  | significant killing |  | significant killing | significant killing | cell survival rate (killing of cancer cells) ([5]; A549, 72 hr treatment): significant killing
O=c1[nH]c(=O)n([C@H]2C[C@H](O)[C@@H](CO)O2)cc1I [IdU, iododeoxyuridine] | no DET reactions detected; also recorded: negligible; also recorded: no DET reaction |  |  |  |  |  |  | 
bromo-(1,2-)diamino-benzene [Compound D] |  | essentially no toxicity; also recorded: little toxicity | significant killing | significant killing | significant killing | significant killing | significant killing | 
cis-Pt(NH3)2Cl2 [cisplatin, reference compound] |  |  |  |  |  |  |  | IC50 ([2]; read-out: IC50 (cell survival rate 50% with respect to untreated cells), GM05757, 72-hr treatment): ~10 µM
